Source: article PMC3759295 (Toxicology letters, 2013)

Tests used:
[1] = tested on: CYP1A1 mRNA in primary human hepatocytes; assay: CYP1A1 mRNA expression in primary human hepatocytes; format: cell-based; conditions: four different primary human hepatocytes cultures
CYP1A1 mRNA = assay: as above; format: cell-based; conditions: human
AhR [2] = molecular target: T1, AhR (Homo sapiens, UniProt P35869); assay: Gene reporter assay, transcriptional activity of AhR in AZ-AHR reporter cells; conditions: 10 µM and 50 µM, 24 h
T1 sequence (P35869 11-848): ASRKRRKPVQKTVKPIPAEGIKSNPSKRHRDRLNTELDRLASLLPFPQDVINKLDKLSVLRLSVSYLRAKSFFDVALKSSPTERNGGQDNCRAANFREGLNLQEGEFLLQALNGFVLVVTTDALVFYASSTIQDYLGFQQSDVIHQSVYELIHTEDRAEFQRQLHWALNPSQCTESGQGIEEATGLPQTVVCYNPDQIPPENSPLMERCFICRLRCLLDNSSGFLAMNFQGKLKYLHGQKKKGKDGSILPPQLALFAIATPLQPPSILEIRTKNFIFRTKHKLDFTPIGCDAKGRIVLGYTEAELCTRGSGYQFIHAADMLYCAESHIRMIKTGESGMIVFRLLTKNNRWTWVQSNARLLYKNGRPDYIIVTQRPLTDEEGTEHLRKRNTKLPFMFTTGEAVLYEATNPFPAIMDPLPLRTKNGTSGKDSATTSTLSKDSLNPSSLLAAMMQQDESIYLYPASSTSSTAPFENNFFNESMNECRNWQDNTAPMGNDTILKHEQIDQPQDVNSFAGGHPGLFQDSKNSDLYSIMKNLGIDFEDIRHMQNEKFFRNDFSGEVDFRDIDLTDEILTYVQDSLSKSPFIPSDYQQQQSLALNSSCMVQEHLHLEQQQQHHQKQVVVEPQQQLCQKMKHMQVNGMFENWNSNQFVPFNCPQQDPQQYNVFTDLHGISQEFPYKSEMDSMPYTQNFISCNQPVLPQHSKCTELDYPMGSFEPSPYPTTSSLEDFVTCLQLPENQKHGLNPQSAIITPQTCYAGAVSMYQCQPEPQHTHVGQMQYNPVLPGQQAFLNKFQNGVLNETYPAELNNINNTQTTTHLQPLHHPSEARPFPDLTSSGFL

[3] = tested on: CYP1A1 mRNA in HepG2 cells; assay: CYP1A1 mRNA expression in HepG2 cells; conditions: HepG2, 50 µM, 24 h
[4] = tested on: CYP1A1 protein in primary human hepatocytes; assay: CYP1A1 protein in primary human hepatocytes; conditions: four different primary human hepatocytes cultures
AhR [5] = molecular target: T2, AhR (Cavia porcellus, UniProt Q6J287); conditions: any tested concentration, 2 nM [3H]TCDD
T2 sequence (Q6J287 1-846): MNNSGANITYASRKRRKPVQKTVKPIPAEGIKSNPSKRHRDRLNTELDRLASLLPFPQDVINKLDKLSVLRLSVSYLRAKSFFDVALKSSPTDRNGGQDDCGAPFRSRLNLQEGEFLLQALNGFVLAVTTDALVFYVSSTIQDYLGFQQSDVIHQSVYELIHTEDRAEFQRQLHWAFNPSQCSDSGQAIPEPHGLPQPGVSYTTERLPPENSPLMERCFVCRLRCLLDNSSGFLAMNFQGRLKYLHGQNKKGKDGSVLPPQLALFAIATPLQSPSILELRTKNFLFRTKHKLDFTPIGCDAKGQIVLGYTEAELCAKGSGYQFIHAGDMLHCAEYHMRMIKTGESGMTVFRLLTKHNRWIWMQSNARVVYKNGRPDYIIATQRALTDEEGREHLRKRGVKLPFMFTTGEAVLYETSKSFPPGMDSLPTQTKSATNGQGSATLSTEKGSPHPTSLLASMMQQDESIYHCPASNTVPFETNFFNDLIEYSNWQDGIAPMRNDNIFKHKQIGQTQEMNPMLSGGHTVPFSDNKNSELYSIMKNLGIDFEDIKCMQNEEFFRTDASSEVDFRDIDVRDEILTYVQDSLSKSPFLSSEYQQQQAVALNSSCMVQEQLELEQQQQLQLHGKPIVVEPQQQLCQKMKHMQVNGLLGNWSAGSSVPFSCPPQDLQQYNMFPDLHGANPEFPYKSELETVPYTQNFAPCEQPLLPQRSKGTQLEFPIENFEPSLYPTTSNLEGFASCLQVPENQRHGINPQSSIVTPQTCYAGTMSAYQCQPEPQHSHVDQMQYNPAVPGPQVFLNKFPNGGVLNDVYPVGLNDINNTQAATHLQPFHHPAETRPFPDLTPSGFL

[6] = tested on: CYP1A1 mRNA in LS174T cells; assay: CYP1A1 mRNA expression in LS174T cells; conditions: 50 µM, 24 h
[7] = male, primary human hepatocytes (culture LH45)
[8] = male, primary human hepatocytes (culture LH46)

OC[C@H]1O[C@@H](Oc2cc3c(O[C@@H]4O[C@H](CO)[C@@H](O)[C@H](O)[C@H]4O)cc(O)cc3[o+]c2-c2ccc(O)c(O)c2)[C@H](O)[C@@H](O)[C@@H]1O [CYA-3, cyanidin-3,5-di-O-glucoside chloride]
induction of CYP1A1 mRNA [1]: Neither compound induced | fold induction at 24 h, 50 µM (CYP1A1 mRNA; primary human hepatocytes (culture LH48 as printed)): 0.13 ± 0.03 | fold induction at 24 h, 10 µM (CYP1A1 mRNA; [7]): 0.68 ± 0.2 | fold induction at 24 h, 50 µM (CYP1A1 mRNA; [7]): 0.48 ± 0.07 | fold induction at 24 h, 10 µM (CYP1A1 mRNA; [8]): 2.21 ± 0.16 | fold induction at 24 h, 50 µM (CYP1A1 mRNA; [8]): 2.59 ± 0.09 | fold induction at 24 h, 50 µM (CYP1A1 mRNA; male, primary human hepatocytes (culture LH47)): 0.45 ± 0.03 | induction of luciferase activity (AhR [2]): concentration-dependent induction | level of CYP1A1 mRNA [3]: significantly increased | induction of CYP1A1 protein [4]: Neither compound induced | displacement of radiolabelled TCDD from AhR (AhR [5]): did not displace | level of CYP1A1 mRNA [6]: significantly increased
